Consider six compounds from publication PMC4964431, “Discovery of a Potential HER2 Inhibitor from Natural Products for the Treatment of HER2-Positive Breast Cancer” (International Journal of Molecular Sciences, 2016).

Entries after “also recorded” stand apart in the source; their conditions may differ. Where only a bound is given, the exact number is not on record here.

One data set has as its target T1, HER2 kinase (Homo sapiens, UniProt P04626).
T1 construct: purchased Invitrogen PV3366
Nature of the data set: In vitro HER2 kinase inhibition assay (Invitrogen kit PV3366). In kind it is biochemical. As to conditions: HER2 0.20 μg/mL, mean ± SD, read-out: Enzymatic IC50. The procedure:
The compounds were tested for HER2 kinase inhibition abilities using an HER2 assay kit (Invitrogen, Carlsbad, CA, USA, PV3366). The kinase kit was obtained from Invitrogen; all compounds were purchased from Thermo Electron Corporation (Walthan, MA, USA). The concentrations of HER2 were set as 0.20 μg/mL. The concentration of selected compounds was set as six gradients (0.0001–10 μM) in DMSO. Firstly, 2.5 μL of ATP solution and 2.5 μL of compound solution was added to the 5.0 μL substrate peptide. Then, the mixture solution on the plate was incubated for 1 h at 25 °C. Next, 5 μL of development solution was added to the well, and the plate was incubated for 1 h at 25 °C. To terminate the reaction, 5 μL of stop reagent was added to plate. The Infinite M100 Pro multi-label reader (Tecan, Männedorf, Switzerland) was used to measure the activity. Graph Pad Prism 5.0 (Graph Pad Software, San Diego, CA, USA) was used to calculate the IC50 values.

The test system of data set [1] is HER2-overexpressing BT474 cell line. Nature of the data set: Cell proliferation inhibition, CCK-8. In kind it is cell-based. Conditions: Homo sapiens, BT-474; BT474, 48 h, CCK-8, mean ± SD. The protocol:
(§1) All cells were obtained from ATCC (Manassas, VA, USA). The HER2-overexpression SKBR3 cell line and BT474 cell line were cultured in RPMI (Roswell Park Memorial Institute medium) 1640 medium and supplemented with 10% FBS (fetal bovine serum). In addition, 100 U/mL of Penicillin and Streptomycin were added. The cell cultures were maintained at 37 °C in a humidified atmosphere of 5% CO2. Cells were seeded at density 2 × 10^4/mL in 96-well plates per well. The medium was removed after seeding 24 h. The compounds were dissolved in DMSO (dimethyl sulfoxide) and diluted with medium to different concentrations. Then, 20 µL of the selected compounds solution were added in 96-well plates, and incubation continued for 48 h at 37 °C in a humidified atmosphere of 5% CO2. After that, the medium was removed, 90 µL of fresh medium and 10 μL of CCK-8 [54] (Dojindo Molecular Technologies Inc., Kumamoto, Japan) was added to each well and incubated for additional half hour. The activity was measured by microplate reader. Graph Pad Prism 5.0 was used to calculated the IC50 values. The normal breast cells (Hs578Bst) were cultured the same as SKBR3 cells. Cell viability was measured by the CCK-8 assay as previously described.

Data set [2] relates to HER2-overexpressing SKBR3 cell line. Nature of the data set: Cell proliferation inhibition, CCK-8. In kind it is cell-based. Conditions: Homo sapiens, SK-BR-3; SKBR3, 48 h, CCK-8, mean ± SD. The procedure:
as §1

Data set [3] concerns normal breast cells (Hs578Bst). Put plainly: Normal breast cell viability, CCK-8. The format is cell-based. Conditions: different concentrations, 24 h of treatment. The procedure: Three compounds (cell inhibition IC50 values < 50 μM) were further tested on the normal breast cell (Hs578Bst) to study the effect on cell proliferation and thus verify the toxicity of normal cells. CCK-8 (Cell Counting kit-8) assays were utilized to determine the effects of different concentrations of three compounds on normal breast cell viability after 24 h of treatment.
as §1

By IC50 is commonly meant the point on the concentration scale where inhibition reaches its midpoint.

T1 sequence (P04626 23-1255): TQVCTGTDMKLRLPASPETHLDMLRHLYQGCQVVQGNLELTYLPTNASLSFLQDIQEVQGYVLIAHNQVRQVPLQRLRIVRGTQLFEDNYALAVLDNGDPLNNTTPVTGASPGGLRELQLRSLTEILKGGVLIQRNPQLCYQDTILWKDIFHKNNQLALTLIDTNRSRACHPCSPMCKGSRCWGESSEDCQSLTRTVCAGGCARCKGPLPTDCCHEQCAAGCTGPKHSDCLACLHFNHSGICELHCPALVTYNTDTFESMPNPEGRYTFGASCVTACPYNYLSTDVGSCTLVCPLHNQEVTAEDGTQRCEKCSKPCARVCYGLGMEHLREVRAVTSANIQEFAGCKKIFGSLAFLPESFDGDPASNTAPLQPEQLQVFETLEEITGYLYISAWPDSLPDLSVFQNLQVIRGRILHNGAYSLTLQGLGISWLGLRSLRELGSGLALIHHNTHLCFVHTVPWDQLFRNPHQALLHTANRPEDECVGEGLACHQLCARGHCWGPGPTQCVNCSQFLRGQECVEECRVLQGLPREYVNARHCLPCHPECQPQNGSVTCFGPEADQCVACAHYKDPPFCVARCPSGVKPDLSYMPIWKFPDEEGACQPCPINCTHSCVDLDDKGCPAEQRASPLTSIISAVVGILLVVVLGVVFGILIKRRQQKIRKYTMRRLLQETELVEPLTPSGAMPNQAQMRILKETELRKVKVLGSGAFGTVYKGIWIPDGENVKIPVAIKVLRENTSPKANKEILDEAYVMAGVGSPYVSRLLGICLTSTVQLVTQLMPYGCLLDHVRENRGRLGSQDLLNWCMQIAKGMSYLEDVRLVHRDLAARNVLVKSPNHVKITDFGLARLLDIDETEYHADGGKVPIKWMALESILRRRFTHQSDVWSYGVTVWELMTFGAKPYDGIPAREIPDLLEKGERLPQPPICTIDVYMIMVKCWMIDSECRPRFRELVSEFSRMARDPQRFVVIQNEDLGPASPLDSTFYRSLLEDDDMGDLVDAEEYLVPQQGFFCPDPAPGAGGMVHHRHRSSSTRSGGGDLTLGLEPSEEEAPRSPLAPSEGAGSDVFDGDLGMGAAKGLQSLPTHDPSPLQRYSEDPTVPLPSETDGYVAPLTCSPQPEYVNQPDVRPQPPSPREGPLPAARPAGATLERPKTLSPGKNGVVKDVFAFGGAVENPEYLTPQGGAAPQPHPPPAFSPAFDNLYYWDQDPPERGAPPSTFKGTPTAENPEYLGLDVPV

For `CC(C)=CCC/C(C)=C/Cc1c(O)cc2c(c1O)C(=O)[C@H](O)[C@@H](c1ccc(O)cc1)O2` [ZINC13378641, (2R,3R)-6-[(2E)-3,7-dimethylocta-2,6-dienyl]-3,5,7-trihydroxy-2-(4-hydroxyphenyl)chroman-4-one], the IC50 on HER2 kinase was 3.71 ± 0.03 µM; in data set [1], 18.6 ± 2.06 µM; in data set [2], 26.5 ± 1.62 µM. Further, the “cytotoxicity against normal breast cells (cell viability)” value (“cytotoxicity” for short) is “little cytotoxicity” in data set [3] and “low cytotoxicity” in data set [3] (listed as ZINC31178641).

Regarding `CC(C)=CCC/C(C)=C/Cc1c(O)cc2c(c1O)C(=O)CC(c1ccc(O)c(O)c1)O2` (stereo not drawn) [ZINC15122021, 2-(3,4-dihydroxyphenyl)-6-[(2E)-3,7-dimethylocta-2,6-dienyl]-5,7-dihydroxy-2,3-dihydrochromen-4-one], the IC50 at HER2 kinase stood at 0.18 ± 0.002 µM; in data set [1], 4.11 ± 0.95 µM; in data set [2], 1.22 ± 0.05 µM. Besides, the “cytotoxicity” value in data set [3] is given as “little cytotoxicity; also recorded: low cytotoxicity”.

For the compound `CC(C)=CC[C@@H](O)/C(C)=C/Cc1cc(C(=O)O)cc(C/C=C(\C)CO)c1O` [ZINC31166919, 4-hydroxy-3-[(2E,4R)-4-hydroxy-3,7-dimethyl-octa-2,6-dienyl]-5-[(E)-4-hydroxy-3-methyl-but-2-enyl]be], the IC50 on HER2 kinase worked out at 2.63 ± 0.03 µM; in data set [1], 6.78 ± 0.68 µM; in data set [2] it was 8.61 ± 0.45 µM. Moreover, the “cytotoxicity” value in data set [3] is “slightly enhanced cytotoxicity with increase of concentration”.

`O=C(O)c1cccc(C(=O)CC[C@@H]2O[C@@H](n3cnc4c(=O)[nH]cnc43)[C@@H](O)[C@H]2O)c1` [ZINC35456515, 3-[3-[(2S,3R,4S,5R)-3,4-dihydroxy-5-(6-hydroxypurin-9-yl)tetrahydrofuran-2-yl]propanoyl]benzoic]: the IC50 at HER2 kinase was greater than 10 µM; in data set [1], greater than 50 µM; in data set [2], greater than 50 µM.

With `C/C(=C\Cc1cc(C(=O)O)cc(CC[C@H](C)C(=O)/C=C/C(C)(C)O)c1O)CO` [ZINC49181256, 4-hydroxy-3-[(E,3S)-7-hydroxy-3,7-dimethyl-4-oxo-oct-5-enyl]-5-[(E)-4-hydroxy-3-methyl-but-2-enyl]be], the values for the IC50 (at HER2 kinase; in data set [1]; in data set [2]) were 9.18 ± 0.01 µM, greater than 50 µM and greater than 50 µM, respectively.

Turning to `CS(=O)(=O)CCNCc1ccc(-c2ccc3ncnc(Nc4ccc(OCc5cccc(F)c5)c(Cl)c4)c3c2)o1` [lapatinib, Lapatinib, reference compound], the IC50 in data set [1] turned out to be 0.45 ± 0.03 µM; in data set [2], 0.38 ± 0.02 µM.
